According to patent USRE48461E1, “Modulation of androgen receptor expression” (Ionis Pharmaceuticals, Inc., priority 2012, dated 2021):

Experiments:
Type in all cases: cell-based, human
C4-2 cells = test: C4-2 cell proliferation (complete or CSS+DHT medium); settings: C4-2 cells, 5 days
Method: After a treatment period of 5 days in complete medium or CSS+1 nM DHT medium, the proliferative capacity of the cancer cells was measured with using CellTiter 96® AQueous One Solution or CellTiter-Glo® Cell Proliferation kit (Promega), following the manufacturer's instructions. […] The proliferative capacity of cells cultured in CSS medium without DHT is 17% of untreated control levels.

PSA mRNA [1] = test: PSA expression in C4-2B cells (Example 30); settings: 48 hrs
Method: Cells were plated at 1,000 cells per well. […] ISIS 549148 was included as a negative control. […] After an incubation period of 48 hrs, RNA levels of AR, PSA and TMPRSS2 were measured.
Cells were plated at 2,000 cells per well and cultured in CSS media with 1 nM DHT. […] ISIS 549148 was included as a negative control. […] After an incubation period of 48 hrs, RNA levels of AR, PSA and TMPRSS2 were measured. In the absence of DHT, AR expression in C4-2 cells was 188%, PSA expression was 43% and TMPRSS2 expression was 27% compared to the untreated control.

PSA mRNA [2] = test: PSA expression in 22RV1 cells; settings: RNAiMax, 48 hrs
Method: Cells were plated at 1,000 cells per well. […] After an incubation period of 48 hrs, RNA levels of full length AR, the V7 variant, PSA and TMPRSS2 were measured.
After an incubation period of 48 hrs, RNA levels of full length AR, the V7 variant, PSA and TMPRSS2 were measured.
Cells were plated at 2,000 cells per well and cultured in CSS media for 16 hours. […] After 4 hrs, 1 nM DHT was added. […] After an incubation period of 48 hrs, RNA levels of AR, AR V7 variant, PSA and TMPRSS2 were measured.

AR mRNA = test: Time-course AR mRNA expression in C4-2B cells (8, 24, 48 hours); settings: C4-2B cells
Method: C4-2B cells were plated at 1,000 cells per well in complete medium. […] After a treatment period of 8 hours, 24 hours, and 48 hours, AR expression was measured with primer probe set hAR-LTS00943.

VCaP cells = test: VCaP cell proliferation; settings: VCaP cells, 5 days
Method: After a treatment period of 5 days in complete medium or CSS+1 nM DHT medium, the proliferative capacity of the cancer cells was measured with using CellTiter 96® AQueous One or CellTiter-Glo® Solution Cell Proliferation kit (Promega), following the manufacturer's instructions. […] Treatment with ISIS oligonucleotides in CSS+DHT medium reduced the proliferative capacity to a greater extent than treatment with MVD-3100. The proliferative capacity of cells cultured in CSS medium without DHT is 12% of untreated control levels.

C4-2B cells = test: C4-2B cell proliferation (complete or CSS+DHT medium; Example 30); settings: C4-2B cells, 5 days
Method: After a treatment period of 5 days in complete medium or CSS+1 nM DHT medium, the proliferative capacity of the cancer cells was measured with using CellTiter 96® AQueous One or CellTiter-Glo® Solution Cell Proliferation kit (Promega), following the manufacturer's instructions.

TMPRSS2 mRNA = test: TMPRSS2 expression in LNCaP cells (complete, CSS+DHT medium); settings: for Percent inhibition of TMPRSS2 expression in LNCaP cells cultured in CSS + DHT medium: CSS + DHT (1 nM) medium, 48 hrs; for Percent inhibition of TMPRSS2 expression in LNCaP cells cultured in complete medium: 48 hours
Method: Cells were plated at 1,000 cells per well. […] ISIS 549148 was included as a negative control. […] After an incubation period of 48 hours, RNA levels of AR, PSA and TMPRSS2 were measured.
Cells were plated at 2,000 cells per well and cultured in phenol red-free RPMI supplemented with 5% charcoal stripped serum (Gibco) media for 16 hours. […] ISIS 549148 was included as a negative control. […] After an incubation period of 4 hrs, DHT was added to the medium to a final concentration of 1 nM as indicated. RNAs were collected 48 hrs later and levels of AR, PSA and TMPRSS2 were measured. In the absence of DHT, AR expression in LNCaP cells was 95%, PSA expression was 7% and TMPRSS2 expression was 24% compared to the untreated control.

In the case of “GGCTACTACGCCGTCA (3-10-3 (S)-cEt gapmer, chemistry not fully specified) [ISIS 549148, reference compound]”, the “Proliferation (% untreated control)” value (C4-2 cells; CSS + DHT medium, 0.04 μM) is reported as 102 % untreated control, the “Proliferation (% untreated control)” value (C4-2 cells; CSS + DHT medium, 0.2 μM) is reported as 82 % untreated control and the “Proliferation (% untreated control)” value (C4-2 cells; CSS + DHT medium, 1 μM) is reported as 82 % untreated control. For the same sequence, the “Proliferation (% untreated control)” value (C4-2 cells; CSS + DHT medium, 5.0 μM) was 91 % untreated control, the “Proliferation (% untreated control)” value (C4-2 cells; complete medium, 0.04 μM) was 106 % untreated control and the “Proliferation (% untreated control)” value (C4-2 cells; complete medium, 0.2 μM) was 112 % untreated control. The “Proliferation (% untreated control)” value (C4-2 cells; complete medium, 1 μM) was 91 % untreated control, the “Proliferation (% untreated control)” value (C4-2 cells; complete medium, 5.0 μM) was 94 % untreated control and the “Percent inhibition of PSA expression” value (PSA mRNA [1]; CSS + DHT medium, 0.04 μM) was 0%. The “Percent inhibition of PSA expression” value (PSA mRNA [1]; CSS + DHT medium, 0.2 μM) was 0%, the “Percent inhibition of PSA expression” value (PSA mRNA [1]; CSS + DHT medium, 1 μM) was 0% and the “Percent inhibition of PSA expression” value (PSA mRNA [1]; CSS + DHT medium, 5.0 μM) was 0%. For the same sequence, the “Percent inhibition of PSA expression” value (PSA mRNA [1]; complete medium, 0.04 μM) was 3%, the “Percent inhibition of PSA expression” value (PSA mRNA [1]; complete medium, 0.2 μM) was 11% and the “Percent inhibition of PSA expression” value (PSA mRNA [1]; complete medium, 1 μM) was 18%. For the same sequence, the “Percent inhibition of PSA expression” value (PSA mRNA [1]; complete medium, 5.0 μM) was 14%, the “Percent inhibition of PSA expression” value (PSA mRNA [2]; CSS + DHT medium, 1.34 nM) was 8% and the “Percent inhibition of PSA expression” value (PSA mRNA [2]; CSS + DHT medium, 4.0 nM) was 23%. For the same sequence, the “Percent inhibition of PSA expression” value (PSA mRNA [2]; CSS + DHT medium, 13.4 nM) was 29%, the “Percent inhibition of PSA expression” value (PSA mRNA [2]; complete medium, 1.34 nM) was 9% and the “Percent inhibition of PSA expression” value (PSA mRNA [2]; complete medium, 4.0 nM) was 11%. The “Percent inhibition of PSA expression” value (PSA mRNA [2]; complete medium, 13.4 nM) was 17%, the “Percent inhibition of PSA expression” value (PSA mRNA [2]; complete medium, 40 nM) was 27% and the “Percent expression of AR compared to the control group in 8 hours” value (“Percent expression of AR … in 8 hours” below) (AR mRNA; 0.04 μM) was 116%. For the same sequence, the “Percent expression of AR compared to the control group in 24 hours” value (“Percent expression of AR … in 24 hours” for short) (AR mRNA; 0.04 μM) was 87%, the “Percent expression of AR compared to the control group in 48 hours” value (from here on “Percent expression of AR … in 48 hours”) (AR mRNA; 0.04 μM) was 98% and the “Percent expression of AR … in 8 hours” value (AR mRNA; 0.2 μM) was 105%. The “Percent expression of AR … in 24 hours” value (AR mRNA; 0.2 μM) was 85%, the “Percent expression of AR … in 48 hours” value (AR mRNA; 0.2 μM) was 90% and the “Percent expression of AR … in 24 hours” value (AR mRNA; 1 μM) was 87%. The “Percent expression of AR … in 48 hours” value (AR mRNA; 1 μM) was 87%, the “Percent expression of AR … in 8 hours” value (AR mRNA; 5.0 μM) was 110% and the “Percent expression of AR … in 24 hours” value (AR mRNA; 5.0 μM) was 107%. The “Percent expression of AR … in 48 hours” value (AR mRNA; 5.0 μM) was 99%, the “Proliferation (% untreated control)” value (VCaP cells; CSS + DHT medium, 1.34 nM) was 114 % untreated control and the “Proliferation (% untreated control)” value (VCaP cells; CSS + DHT medium, 4.0 nM) was 123 % untreated control. For the same sequence, the “Proliferation (% untreated control)” value (VCaP cells; CSS + DHT medium, 13.4 nM) was 104 % untreated control, the “Proliferation (% untreated control)” value (VCaP cells; CSS + DHT medium, 40 nM) was 92 % untreated control and the “Proliferation (% untreated control)” value (VCaP cells; complete medium, 1.34 nM) was 98 % untreated control. For the same sequence, the “Proliferation (% untreated control)” value (VCaP cells; complete medium, 4.0 nM) was 98 % untreated control, the “Proliferation (% untreated control)” value (VCaP cells; complete medium, 13.4 nM) was 113 % untreated control and the “Proliferation (% untreated control)” value (VCaP cells; complete medium, 40 nM) was 106 % untreated control. The “Proliferation (% untreated control)” value (C4-2B cells; CSS + DHT medium, 0.04 μM) was 109 % untreated control, the “Proliferation (% untreated control)” value (C4-2B cells; CSS + DHT medium, 0.2 μM) was 131 % untreated control and the “Proliferation (% untreated control)” value (C4-2B cells; CSS + DHT medium, 1 μM) was 119 % untreated control. For the same sequence, the “Proliferation (% untreated control)” value (C4-2B cells; CSS + DHT medium, 5.0 μM) was 114 % untreated control, the “Proliferation (% untreated control)” value (C4-2B cells; complete medium, 0.04 μM) was 119 % untreated control and the “Proliferation (% untreated control)” value (C4-2B cells; complete medium, 0.2 μM) was 97 % untreated control. The “Proliferation (% untreated control)” value (C4-2B cells; complete medium, 1 μM) was 103 % untreated control, the “Proliferation (% untreated control)” value (C4-2B cells; complete medium, 5.0 μM) was 98 % untreated control and the “Percent inhibition of TMPRSS2 expression in LNCaP cells cultured in CSS + DHT medium” value (from here on “Percent inhibition … in CSS + DHT medium”) (TMPRSS2 mRNA; 0.04 μM) was 0%. For the same sequence, the “Percent inhibition … in CSS + DHT medium” value (TMPRSS2 mRNA; 0.2 μM) was 0%, the “Percent inhibition … in CSS + DHT medium” value (TMPRSS2 mRNA; 1 μM) was 1% and the “Percent inhibition … in CSS + DHT medium” value (TMPRSS2 mRNA; 5.0 μM) was 10%. The “Percent inhibition of TMPRSS2 expression in LNCaP cells cultured in complete medium” value (“Percent inhibition … in complete medium” below) (TMPRSS2 mRNA; 0.04 μM) was 0%, the “Percent inhibition … in complete medium” value (TMPRSS2 mRNA; 0.2 μM) was 0% and the “Percent inhibition … in complete medium” value (TMPRSS2 mRNA; 1 μM) was 0%. For the same sequence, the “Percent inhibition … in complete medium” value (TMPRSS2 mRNA; 5.0 μM) was 0%.
